Reference: PubChem BioAssay (NCI)
“And” between values parts separate entries of the source, which are not always exact repeats. Equal entries are not always repeated.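 All cell lines were grown in 96-well plates and treated with compound for 48 hours. The concentration for 50% growth inhibition is given as GI50. TGI: total growth inhibition.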

Tested on: A498 renal
Assay: NCI-60 cell line screen, 48 h

Row | Structure (SMILES) | GI50 [µM] | TGI [µM]
1 | Nc1cc2nc3ccccc3sc-2cc1=O | 2.32 | 8.71
2 | CN(CC(=O)O)S(=O)(=O)c1ccc2ccccc2c1 | – | > 100
3 | COc1cc2nc(-c3ccc(C(F)(F)F)cc3)cc(OCCCN3CCC(O)CC3)c2cc1OC | 2.37 | 10.3
4 | CC(=O)OC(C)C(=O)C1c2cccc(O)c2C(=O)c2c(O)cc(C)cc21 (stereo not drawn) | – | 3.68
5 | COc1ccc2c(c1)C1(C=N2)CCN(C(C)=O)CC1 | – | > 100
6 | Oc1ccc(Cl)cc1-c1cc(-c2ccccc2Cl)[nH]n1 | 95.7 | > 100
7 | CCOC(=O)C(Sc1ccccc1)c1c(OC)cc(=O)oc1/C=[N+](/[O-])c1ccc(N(C)C)cc1 (stereo not drawn) | – | > 100
8 | CNC(=O)c1cc(Oc2ccc3nc(NC(=O)Nc4ccc(Cl)c(C(F)(F)F)c4)sc3c2)ccn1 | 2.49 | 12.2
9 | COc1ccc2nc3cc(Cl)ccc3c(Sc3ccccc3[N+](=O)[O-])c2c1 | – | > 100
10 | COc1ccc(C2=CSc3cc(Cl)c(C)cc3S(=O)(=O)N2C(C)=O)cc1 | 59.5 | > 100
11 | COc1cccc(NC(=O)CC(=O)n2nc(C)c(N=Nc3ccccc3)c2C)c1 | – | > 100
12 | CC(=O)[O][Hg][c]1c(N)c(C)cc(C)c1F | 5.35 | 15.8
13 | O=C(O)CCSC(=O)Nc1cccc(F)c1 | – | > 100
14 | CCNC1C2(CCCCC2)NC(=O)C12CCCCC2 (stereo not drawn) | – | > 100

Tested on: UO-31 renal
Assay: NCI-60 cell line screen, 48 h

Row | Structure (SMILES) | GI50 [µM] | TGI [µM]
15 | NC(CSC(c1ccccc1)(c1ccccc1)c1ccc2c(c1)OCO2)C(=O)O (stereo not drawn) | 9.6 | > 100
16 | C=CCc1cc(OC)c2c(c1)C(O)CC(c1ccc(OC)c(OC)c1)O2 (stereo not drawn) | – | > 100
17 | O=C(NCCNc1nccc(-c2c(-c3cccc(O)c3)nc3sccn23)n1)c1ccccc1O | 5 | 19.8
18 | C[C@@H](CS(C)(=O)=O)Nc1ncc2cc(Oc3ccc(F)cc3F)c(=O)n(C)c2n1 | > 25 | > 25
19 | CC(C)=CCCc1c(C)ccc2c1C(=O)C(=O)C(C(C)C)=C2 | – | > 22
20 | CCOC(=O)Nc1nc2ccc(OCC)cc2s1 | > 100 | > 100
21 | NS(=O)(=O)c1ccccc1C(=O)N/N=C(\c1nc2ccc([N+](=O)[O-])cc2[nH]c1=O)C(O)c1ccc([N+](=O)[O-])cc1 (stereo not drawn) | – | > 100
22 | COC(=O)[C@@H](C)C[C@H](Cc1ccc(F)cc1)NC(=O)c1csc([C@@H](C[C@H](C(C)C)N(C)C(=O)[C@@H](NC(=O)[C@H]2CCCCN2C)C(C)C)OC(C)=O)n1 | – | > 16.7
23 | N#CC(C#N)=c1ccc(=C2NCC3CCCN23)cc1 (stereo not drawn) | – | > 100
24 | COc1ccc2c(c1)C(=O)/C(=C/c1ccc(OCC(=O)Nc3nccs3)cc1)O2 | 0.215 | 0.374
25 | Nc1ccc(C(=O)N/C(=C\c2ccc3c(c2)OCO3)c2nc3[nH]c(=S)[nH]c(=O)c3[nH]2)cc1 | – | > 100
26 | O=[N+]([O-])c1cnc(Sc2ccncn2)s1 | 1.75 | 3.2
27 | COC(=O)[C@@]12C3=NO[C@]1(C(=O)OC)C(O[Si](C)(C)C(C)(C)C)[C@H]1OC(C)(C)O[C@H]1[C@@H]2C(OCc1ccccc1)CC3 (stereo partly drawn) | – | > 100
28 | COc1c2ccoc2c(/C=C/C=O)c2oc(-c3ccccc3)cc(=O)c12 | 3.62 | 35.2
29 | Nc1cc2nc3ccccc3sc-2cc1=O | 1.33 | 3.36
30 | CN(CC(=O)O)S(=O)(=O)c1ccc2ccccc2c1 | – | > 100
31 | CCN(CC)CC(C(=O)Nc1c(C)cccc1C)/C(C)=N\NC(=O)C[N+](C)(C)C (stereo not drawn) | – | > 100

Row | Structure (SMILES) | GI50 [µM] | TGI [µM]
32 | CC1=C(C(=O)Nc2ccccc2C)C(c2ccco2)C(C(=O)Nc2ccccc2C)=C(C)N1C | – | > 100
33 | COc1cc2nc(-c3ccc(C(F)(F)F)cc3)cc(OCCCN3CCC(O)CC3)c2cc1OC | 2.71 | 14.6
34 | CC(=O)OC(C)C(=O)C1c2cccc(O)c2C(=O)c2c(O)cc(C)cc21 (stereo not drawn) | – | 0.744
35 | O=[S@@]1Nc2ccc(Br)cc2S1 | – | 7.43
36 | O=C1NNC(=O)c2ccccc2SSc2ccccc2C(=O)NNC(=O)c2ccccc2SSc2ccccc21 | – | > 100
37 | CCOC(=O)C1=C(C)CC2C(=O)OC(=O)C2C1(C)C (stereo not drawn) | – | > 100
38 | Fc1ccc(Nc2ncnc3ccc(-c4cnc5[nH]ccc5c4)cc23)cc1Cl | 0.6 | 2.38
39 | Oc1ccc(Cl)cc1-c1cc(-c2ccccc2Cl)[nH]n1 | 3.77 | > 100
40 | CCOC(=O)C(Sc1ccccc1)c1c(OC)cc(=O)oc1/C=[N+](/[O-])c1ccc(N(C)C)cc1 (stereo not drawn) | – | 41.9
41 | COc1ccc2nc3cc(Cl)ccc3c(Sc3ccccc3[N+](=O)[O-])c2c1 | – | > 100
42 | O=C(O)C(Cc1ccccc1)N1C(=O)N/C(=C\c2ccc(F)cc2)C1=O (stereo not drawn) | – | > 100
43 | COc1ccc(C2=CSc3cc(Cl)c(C)cc3S(=O)(=O)N2C(C)=O)cc1 | 51.2 | > 100
44 | COc1cccc(NC(=O)CC(=O)n2nc(C)c(N=Nc3ccccc3)c2C)c1 | – | > 100
45 | CC(=O)[O][Hg][c]1c(N)c(C)cc(C)c1F | 1.64 | 3.15
46 | O=C(O)CCSC(=O)Nc1cccc(F)c1 | – | > 100
47 | CCNC1C2(CCCCC2)NC(=O)C12CCCCC2 (stereo not drawn) | – | > 100

Tested on: SF-268 CNS
Assay: NCI-60 cell line screen, 48 h

Row | Structure (SMILES) | GI50 | TGI
48 | NC(CSC(c1ccccc1)(c1ccccc1)c1ccc2c(c1)OCO2)C(=O)O (stereo not drawn) | 0.82 µM | > 77.6 µM
49 | C=CCc1cc(OC)c2c(c1)C(O)CC(c1ccc(OC)c(OC)c1)O2 (stereo not drawn) | – | > 100 µM
50 | O=C(NCCNc1nccc(-c2c(-c3cccc(O)c3)nc3sccn23)n1)c1ccccc1O | 5.4 µM | 46.6 µM
51 | C[C@@H](CS(C)(=O)=O)Nc1ncc2cc(Oc3ccc(F)cc3F)c(=O)n(C)c2n1 | > 25 µM | > 25 µM
52 | CC(C)=CCCc1c(C)ccc2c1C(=O)C(=O)C(C(C)C)=C2 | – | 11.8 µM
53 | CCOC(=O)Nc1nc2ccc(OCC)cc2s1 | 84.6 µM | > 100 µM
54 | NS(=O)(=O)c1ccccc1C(=O)N/N=C(\c1nc2ccc([N+](=O)[O-])cc2[nH]c1=O)C(O)c1ccc([N+](=O)[O-])cc1 (stereo not drawn) | – | > 100 µM
55 | COC(=O)[C@@H](C)C[C@H](Cc1ccc(F)cc1)NC(=O)c1csc([C@@H](C[C@H](C(C)C)N(C)C(=O)[C@@H](NC(=O)[C@H]2CCCCN2C)C(C)C)OC(C)=O)n1 | 0.00441 µM and 0.00923 µM | > 16.7 µM
56 | N#CC(C#N)=c1ccc(=C2NCC3CCCN23)cc1 (stereo not drawn) | – | > 100 µM
57 | Nc1ccc(C(=O)N/C(=C\c2ccc3c(c2)OCO3)c2nc3[nH]c(=S)[nH]c(=O)c3[nH]2)cc1 | – | > 100 µM
58 | O=[N+]([O-])c1cnc(Sc2ccncn2)s1 | 2.65 µM | 7.29 µM
59 | COc1c2ccoc2c(/C=C/C=O)c2oc(-c3ccccc3)cc(=O)c12 | 4.23 µM | > 100 µM
60 | Nc1cc2nc3ccccc3sc-2cc1=O | 2.53 µM | 8.67 µM
61 | CN(CC(=O)O)S(=O)(=O)c1ccc2ccccc2c1 | – | > 100 µM
62 | CCN(CC)CC(C(=O)Nc1c(C)cccc1C)/C(C)=N\NC(=O)C[N+](C)(C)C (stereo not drawn) | – | > 100 µM
63 | CC1=C(C(=O)Nc2ccccc2C)C(c2ccco2)C(C(=O)Nc2ccccc2C)=C(C)N1C | – | > 100 µM
64 | COc1cc2nc(-c3ccc(C(F)(F)F)cc3)cc(OCCCN3CCC(O)CC3)c2cc1OC | 5.76 µM | 24.7 µM
65 | CC(=O)OC(C)C(=O)C1c2cccc(O)c2C(=O)c2c(O)cc(C)cc21 (stereo not drawn) | – | 1.5 µM
66 | O=[S@@]1Nc2ccc(Br)cc2S1 | – | > 100 µM
67 | O=C1NNC(=O)c2ccccc2SSc2ccccc2C(=O)NNC(=O)c2ccccc2SSc2ccccc21 | 9.81 µM | 30.2 µM and > 100 µM
68 | COc1ccc2c(c1)C1(C=N2)CCN(C(C)=O)CC1 | – | > 100 µM
69 | CCOC(=O)C1=C(C)CC2C(=O)OC(=O)C2C1(C)C (stereo not drawn) | – | > 100 µM
70 | Fc1ccc(Nc2ncnc3ccc(-c4cnc5[nH]ccc5c4)cc23)cc1Cl | 3.47 µM | > 73.4 µM
71 | Oc1ccc(Cl)cc1-c1cc(-c2ccccc2Cl)[nH]n1 | 7.71 µM | > 100 µM
72 | CCOC(=O)C(Sc1ccccc1)c1c(OC)cc(=O)oc1/C=[N+](/[O-])c1ccc(N(C)C)cc1 (stereo not drawn) | – | > 100 µM
73 | CNC(=O)c1cc(Oc2ccc3nc(NC(=O)Nc4ccc(Cl)c(C(F)(F)F)c4)sc3c2)ccn1 | 2.34 µM | 16.4 µM
74 | COc1ccc2nc3cc(Cl)ccc3c(Sc3ccccc3[N+](=O)[O-])c2c1 | – | > 100 µM
75 | COc1ccc(C2=CSc3cc(Cl)c(C)cc3S(=O)(=O)N2C(C)=O)cc1 | 29.1 µM | > 100 µM
